Assay [1] deals with 5-hydroxytryptamine receptor 1A (Homo sapiens, UniProt P08908). The assay is described as follows: Selectivity interaction (GPCR panel (PDSP screen)) EUB0000705a HTR1A.
Assay [2] has as its target T1, Alpha-1A adrenergic receptor (Homo sapiens, UniProt P35348).
T1 sequence (P35348 whole entry): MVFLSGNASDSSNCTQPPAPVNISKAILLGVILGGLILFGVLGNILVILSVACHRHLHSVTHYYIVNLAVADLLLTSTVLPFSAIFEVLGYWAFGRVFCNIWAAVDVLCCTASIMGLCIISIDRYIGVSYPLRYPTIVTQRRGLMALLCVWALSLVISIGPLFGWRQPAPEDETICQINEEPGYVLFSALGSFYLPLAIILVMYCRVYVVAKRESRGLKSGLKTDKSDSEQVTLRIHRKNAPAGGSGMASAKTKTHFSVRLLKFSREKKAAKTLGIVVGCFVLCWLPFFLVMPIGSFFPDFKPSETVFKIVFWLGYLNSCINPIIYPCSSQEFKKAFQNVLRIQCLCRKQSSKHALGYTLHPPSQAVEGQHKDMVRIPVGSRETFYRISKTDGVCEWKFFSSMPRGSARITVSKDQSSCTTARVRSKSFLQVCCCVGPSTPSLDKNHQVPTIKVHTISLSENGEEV
The assay is described as follows: Selectivity interaction (GPCR panel (PDSP screen)) EUB0000705a ADRA1A.

Assay [3] concerns the target T2, Alpha-1D adrenergic receptor (Homo sapiens, UniProt P25100).
T2 sequence (P25100 whole entry): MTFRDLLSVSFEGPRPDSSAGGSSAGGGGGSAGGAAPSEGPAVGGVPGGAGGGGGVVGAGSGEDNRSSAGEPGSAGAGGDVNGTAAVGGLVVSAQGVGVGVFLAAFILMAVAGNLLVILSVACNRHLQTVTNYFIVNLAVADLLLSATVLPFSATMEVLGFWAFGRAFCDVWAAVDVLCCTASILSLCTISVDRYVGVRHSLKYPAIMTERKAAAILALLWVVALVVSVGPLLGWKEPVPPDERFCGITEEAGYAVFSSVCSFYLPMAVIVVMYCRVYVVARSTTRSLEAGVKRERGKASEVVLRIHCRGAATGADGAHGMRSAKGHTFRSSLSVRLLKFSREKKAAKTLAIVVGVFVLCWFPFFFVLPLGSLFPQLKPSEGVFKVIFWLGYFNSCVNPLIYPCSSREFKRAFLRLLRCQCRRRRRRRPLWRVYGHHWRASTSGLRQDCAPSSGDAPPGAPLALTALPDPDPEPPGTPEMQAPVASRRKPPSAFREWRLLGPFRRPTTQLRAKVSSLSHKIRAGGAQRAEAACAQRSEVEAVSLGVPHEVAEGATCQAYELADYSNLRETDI
The assay is described as follows: Selectivity interaction (GPCR panel (PDSP screen)) EUB0000705a ADRA1D.

Assay [4] has as its target T3, Alpha-2C adrenergic receptor (Homo sapiens, UniProt P18825).
T3 sequence (P18825 whole entry): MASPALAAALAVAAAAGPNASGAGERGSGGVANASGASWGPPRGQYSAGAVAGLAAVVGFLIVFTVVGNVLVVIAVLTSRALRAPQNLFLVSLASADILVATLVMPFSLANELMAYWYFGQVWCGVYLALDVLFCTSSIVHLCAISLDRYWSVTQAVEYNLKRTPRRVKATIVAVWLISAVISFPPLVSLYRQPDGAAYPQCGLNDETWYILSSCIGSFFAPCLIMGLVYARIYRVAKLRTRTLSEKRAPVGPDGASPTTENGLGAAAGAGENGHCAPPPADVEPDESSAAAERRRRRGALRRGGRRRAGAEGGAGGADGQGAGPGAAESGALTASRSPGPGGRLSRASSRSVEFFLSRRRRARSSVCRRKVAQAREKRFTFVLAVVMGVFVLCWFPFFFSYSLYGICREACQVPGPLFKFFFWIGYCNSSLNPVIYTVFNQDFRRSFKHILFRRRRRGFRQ
The assay is described as follows: Selectivity interaction (GPCR panel (PDSP screen)) EUB0000705a ADRA2C.

For assay [5], the target named is Beta-3 adrenergic receptor (Homo sapiens, UniProt P13945). The assay is described as follows: Selectivity interaction (GPCR panel (PDSP screen)) EUB0000705a ADRB3.
For assay [6], the target named is T4, Mu-type opioid receptor (Homo sapiens, UniProt P35372). The assay is described as follows: Selectivity interaction (GPCR panel (PDSP screen)) EUB0000705a OPRM1.
For assay [7], the target named is T5, Leucine-rich repeat serine/threonine-protein kinase 2 (Homo sapiens, UniProt Q5S007). The assay is described as follows: Selectivity interaction (KinomeScan (DiscoverX)) EUB0000705a LRRK2. The note with it: at 1 µM.
Assay [8] addresses T5, Leucine-rich repeat serine/threonine-protein kinase 2. The assay is described as follows: Selectivity interaction (NanoBRET assay (HEK293T cells)) EUB0000705a LRRK2. In general terms: In BRET a luciferase serves as donor, and the signal depends on an acceptor being close.
The target in assay [9] is T4, Mu-type opioid receptor. The assay is described as follows: Selectivity interaction (GPCR panel (PDSP screen)) EUB0000712a OPRM1. The conditions noted are these: at 10 µM.
Assay [10] addresses T6, Serine/threonine-protein kinase Chk2 (Homo sapiens, UniProt O96017). The assay is described as follows: Selectivity interaction (KinomeScan (DiscoverX)) EUB0000712a CHEK2. The conditions noted are these: at 1 µM.
The target of assay [11] is T6, Serine/threonine-protein kinase Chk2. The assay is described as follows: Selectivity interaction (NanoBRET assay (HEK293T cells)) EUB0000712a CHEK2.
The target of assay [12] is Serine/threonine-protein kinase B-raf (Homo sapiens, UniProt P15056). The assay is described as follows: Selectivity interaction (NanoBRET assay (HEK293T cells)) EUB0000712a BRAF.
The target of assay [13] is Receptor-interacting serine/threonine-protein kinase 2 (Homo sapiens) (UniProt O43353). The assay is described as follows: Selectivity interaction (KinomeScan (DiscoverX)) EUB0000712a RIPK2. The conditions noted are these: at 1 µM.
For assay [14], the target named is Phosphatidylinositol 4,5-bisphosphate 3-kinase catalytic subunit alpha isoform (Homo sapiens, UniProt P42336). The assay is described as follows: Selectivity interaction (KinomeScan (DiscoverX)) EUB0000712a PIK3CA. The note with it: at 1 µM.
The target of assay [15] is T7, Serine/threonine-protein kinase 38-like (Homo sapiens, UniProt Q9Y2H1). The assay is described as follows: Selectivity interaction (KinomeScan (DiscoverX)) EUB0000712a STK38L. The note with it: at 1 µM.
Assay [16] concerns the target T7, Serine/threonine-protein kinase 38-like. The assay is described as follows: Selectivity interaction (NanoBRET assay (HEK293T cells)) EUB0000712a STK38L.
Target sequence in this assay (Q9Y2H1 whole entry): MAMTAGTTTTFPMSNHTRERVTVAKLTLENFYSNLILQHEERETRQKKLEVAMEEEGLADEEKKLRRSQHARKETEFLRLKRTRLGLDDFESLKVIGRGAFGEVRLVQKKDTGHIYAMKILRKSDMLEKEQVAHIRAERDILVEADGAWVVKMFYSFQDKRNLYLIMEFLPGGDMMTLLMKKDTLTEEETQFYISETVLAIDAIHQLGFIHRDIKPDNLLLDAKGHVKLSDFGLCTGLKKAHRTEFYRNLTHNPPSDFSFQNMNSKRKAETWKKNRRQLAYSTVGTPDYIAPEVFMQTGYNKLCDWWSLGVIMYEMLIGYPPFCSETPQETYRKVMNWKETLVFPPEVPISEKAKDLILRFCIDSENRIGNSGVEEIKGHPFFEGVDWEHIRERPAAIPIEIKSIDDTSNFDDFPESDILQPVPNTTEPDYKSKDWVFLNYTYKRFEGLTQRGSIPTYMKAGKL

In general, Ki refers to a measure of affinity in units of concentration, obtained from inhibition or displacement. A lower Ki goes with a stronger hold on the target. The term IC50 denotes the concentration needed to halve the response being measured. Higher therefore signals weaker potency.

T5 sequence (Q5S007 whole entry): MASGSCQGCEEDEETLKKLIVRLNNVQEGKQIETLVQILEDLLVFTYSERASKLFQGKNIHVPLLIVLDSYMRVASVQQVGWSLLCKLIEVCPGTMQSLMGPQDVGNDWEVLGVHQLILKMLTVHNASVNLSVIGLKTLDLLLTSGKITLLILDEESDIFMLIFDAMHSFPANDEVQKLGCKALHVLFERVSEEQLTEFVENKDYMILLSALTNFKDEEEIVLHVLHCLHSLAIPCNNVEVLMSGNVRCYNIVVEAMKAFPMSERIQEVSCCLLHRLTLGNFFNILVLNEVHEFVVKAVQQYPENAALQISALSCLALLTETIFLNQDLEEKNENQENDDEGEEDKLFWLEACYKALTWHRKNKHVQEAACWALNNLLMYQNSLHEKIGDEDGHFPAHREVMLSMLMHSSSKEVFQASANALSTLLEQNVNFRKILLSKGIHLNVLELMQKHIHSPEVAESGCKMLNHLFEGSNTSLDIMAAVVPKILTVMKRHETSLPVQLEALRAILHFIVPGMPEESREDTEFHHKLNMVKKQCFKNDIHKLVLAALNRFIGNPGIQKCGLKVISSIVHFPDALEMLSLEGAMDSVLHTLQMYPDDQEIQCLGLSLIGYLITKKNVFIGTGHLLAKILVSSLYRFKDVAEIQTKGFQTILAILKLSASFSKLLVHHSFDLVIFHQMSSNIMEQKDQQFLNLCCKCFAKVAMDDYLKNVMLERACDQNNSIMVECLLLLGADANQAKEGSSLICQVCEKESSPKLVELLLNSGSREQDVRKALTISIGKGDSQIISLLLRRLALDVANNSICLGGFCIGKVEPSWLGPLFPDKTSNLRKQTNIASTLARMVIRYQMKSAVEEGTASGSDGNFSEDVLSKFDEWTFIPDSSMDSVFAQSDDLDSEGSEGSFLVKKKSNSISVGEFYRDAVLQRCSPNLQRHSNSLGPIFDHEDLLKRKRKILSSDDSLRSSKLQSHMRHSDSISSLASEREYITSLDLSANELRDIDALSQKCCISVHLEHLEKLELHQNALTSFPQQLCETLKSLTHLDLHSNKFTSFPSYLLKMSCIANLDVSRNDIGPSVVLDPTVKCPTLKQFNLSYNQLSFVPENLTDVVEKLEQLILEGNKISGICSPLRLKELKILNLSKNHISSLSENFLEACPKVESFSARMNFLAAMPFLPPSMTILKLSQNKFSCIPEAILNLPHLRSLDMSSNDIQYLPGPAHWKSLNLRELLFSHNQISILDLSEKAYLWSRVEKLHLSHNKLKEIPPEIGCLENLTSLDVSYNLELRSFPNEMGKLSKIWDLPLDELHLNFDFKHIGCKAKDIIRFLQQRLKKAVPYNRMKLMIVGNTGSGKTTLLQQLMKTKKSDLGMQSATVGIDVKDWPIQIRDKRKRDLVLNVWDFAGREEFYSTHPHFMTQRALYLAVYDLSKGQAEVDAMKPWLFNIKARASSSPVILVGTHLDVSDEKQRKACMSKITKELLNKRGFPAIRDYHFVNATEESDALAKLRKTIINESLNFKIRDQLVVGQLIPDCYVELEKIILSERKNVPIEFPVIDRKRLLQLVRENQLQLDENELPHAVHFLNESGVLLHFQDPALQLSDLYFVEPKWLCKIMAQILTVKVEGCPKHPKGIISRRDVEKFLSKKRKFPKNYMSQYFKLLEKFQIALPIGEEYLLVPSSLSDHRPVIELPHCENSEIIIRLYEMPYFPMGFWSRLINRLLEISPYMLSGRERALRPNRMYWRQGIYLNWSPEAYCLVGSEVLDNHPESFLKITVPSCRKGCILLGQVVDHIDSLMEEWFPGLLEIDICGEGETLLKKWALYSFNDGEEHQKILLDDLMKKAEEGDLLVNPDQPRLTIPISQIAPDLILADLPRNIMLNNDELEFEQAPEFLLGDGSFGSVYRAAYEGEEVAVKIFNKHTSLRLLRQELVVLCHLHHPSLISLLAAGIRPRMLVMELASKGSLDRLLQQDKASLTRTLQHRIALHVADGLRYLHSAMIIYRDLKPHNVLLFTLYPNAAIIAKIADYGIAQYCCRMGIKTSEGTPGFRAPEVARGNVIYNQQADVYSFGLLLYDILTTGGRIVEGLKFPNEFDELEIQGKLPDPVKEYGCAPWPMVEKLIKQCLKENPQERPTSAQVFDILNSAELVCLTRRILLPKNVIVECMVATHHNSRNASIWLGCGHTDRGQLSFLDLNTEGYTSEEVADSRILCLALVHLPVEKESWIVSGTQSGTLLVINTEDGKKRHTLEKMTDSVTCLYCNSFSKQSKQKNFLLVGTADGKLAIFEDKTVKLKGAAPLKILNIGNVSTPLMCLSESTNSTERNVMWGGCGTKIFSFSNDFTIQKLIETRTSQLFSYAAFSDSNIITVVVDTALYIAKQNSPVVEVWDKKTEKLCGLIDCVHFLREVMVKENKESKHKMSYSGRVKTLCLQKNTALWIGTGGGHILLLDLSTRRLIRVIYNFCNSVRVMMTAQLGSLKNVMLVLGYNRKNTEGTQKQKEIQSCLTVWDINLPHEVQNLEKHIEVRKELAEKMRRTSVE
T4 sequence (P35372 whole entry): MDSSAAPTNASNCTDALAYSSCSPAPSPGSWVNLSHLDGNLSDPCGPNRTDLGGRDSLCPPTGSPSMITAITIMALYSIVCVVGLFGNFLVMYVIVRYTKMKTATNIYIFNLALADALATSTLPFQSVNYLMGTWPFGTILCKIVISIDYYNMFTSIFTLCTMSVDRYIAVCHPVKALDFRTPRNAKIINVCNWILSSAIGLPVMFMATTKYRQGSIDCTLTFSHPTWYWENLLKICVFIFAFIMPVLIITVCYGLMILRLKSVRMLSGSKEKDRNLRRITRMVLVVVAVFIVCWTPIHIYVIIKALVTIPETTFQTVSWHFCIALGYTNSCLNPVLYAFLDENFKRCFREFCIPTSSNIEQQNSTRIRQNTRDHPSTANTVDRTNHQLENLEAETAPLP
T6 sequence (O96017 whole entry): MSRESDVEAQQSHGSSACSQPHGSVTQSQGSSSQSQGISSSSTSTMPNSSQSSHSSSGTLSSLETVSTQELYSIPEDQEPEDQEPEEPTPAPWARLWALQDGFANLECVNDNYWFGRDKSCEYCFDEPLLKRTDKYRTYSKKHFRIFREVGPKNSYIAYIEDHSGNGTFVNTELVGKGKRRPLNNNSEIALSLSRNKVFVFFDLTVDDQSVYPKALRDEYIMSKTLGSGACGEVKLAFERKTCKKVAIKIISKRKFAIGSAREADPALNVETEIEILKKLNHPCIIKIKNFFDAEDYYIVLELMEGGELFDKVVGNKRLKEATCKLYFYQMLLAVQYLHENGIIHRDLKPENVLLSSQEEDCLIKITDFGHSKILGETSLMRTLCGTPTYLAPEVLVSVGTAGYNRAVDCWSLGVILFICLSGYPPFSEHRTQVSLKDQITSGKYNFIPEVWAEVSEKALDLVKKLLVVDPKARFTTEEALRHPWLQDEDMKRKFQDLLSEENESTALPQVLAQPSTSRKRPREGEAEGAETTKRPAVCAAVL
Beta-3 adrenergic receptor, sequence (P13945 whole entry): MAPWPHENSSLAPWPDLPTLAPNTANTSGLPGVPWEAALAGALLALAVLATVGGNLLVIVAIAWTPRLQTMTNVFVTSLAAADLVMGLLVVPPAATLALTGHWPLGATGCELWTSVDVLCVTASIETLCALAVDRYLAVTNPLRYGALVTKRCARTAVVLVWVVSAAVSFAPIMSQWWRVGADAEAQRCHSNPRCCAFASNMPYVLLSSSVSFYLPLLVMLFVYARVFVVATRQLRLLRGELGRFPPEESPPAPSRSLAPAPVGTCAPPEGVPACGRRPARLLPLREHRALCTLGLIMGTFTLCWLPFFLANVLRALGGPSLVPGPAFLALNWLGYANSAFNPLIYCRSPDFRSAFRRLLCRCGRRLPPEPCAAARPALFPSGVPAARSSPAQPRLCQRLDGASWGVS
Receptor-interacting serine/threonine-protein kinase 2 (Homo sapiens), sequence (O43353 whole entry, canonical isoform): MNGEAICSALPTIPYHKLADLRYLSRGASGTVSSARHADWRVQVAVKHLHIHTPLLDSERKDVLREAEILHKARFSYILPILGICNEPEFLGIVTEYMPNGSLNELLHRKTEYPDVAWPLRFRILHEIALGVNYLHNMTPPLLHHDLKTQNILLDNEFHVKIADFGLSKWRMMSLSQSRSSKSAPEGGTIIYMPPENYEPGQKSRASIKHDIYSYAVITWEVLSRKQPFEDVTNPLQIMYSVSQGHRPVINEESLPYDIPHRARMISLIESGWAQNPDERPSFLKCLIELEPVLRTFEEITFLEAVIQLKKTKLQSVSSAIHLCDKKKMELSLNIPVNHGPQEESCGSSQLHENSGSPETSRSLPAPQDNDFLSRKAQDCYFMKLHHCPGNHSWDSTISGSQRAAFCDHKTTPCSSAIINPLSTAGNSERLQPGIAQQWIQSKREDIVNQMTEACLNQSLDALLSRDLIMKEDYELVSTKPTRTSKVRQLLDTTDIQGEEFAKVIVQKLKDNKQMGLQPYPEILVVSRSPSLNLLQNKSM

In the case of `CN1CCN(C(=O)C(C)(C)c2ccc(C(=O)Nc3cn4cc(-c5cc(C(C)(C)C)cc(C(C)(C)C)c5)ccc4n3)cc2)CC1` [T3-CLK-N], the inhibition constant (Ki) in [1] is 2.18 µM; in [2] it was 1.67 µM; in assay [3], over 10 µM; in assay [4], over 10 µM; in assay [5], over 10 µM; on Mu-type opioid receptor [6], 4.52 µM. In assay [7], the % of control was over 95%. Also, the IC50 in assay [8] was over 10 µM.
As to `CS(=O)(=O)N1CCCC(NC(=O)[C@H](CCC2CCCCC2)NC(=O)c2ccc(CNC(=O)c3cnc4ccccn34)cc2)C1` (stereo partly specified) [SR-302], at Mu-type opioid receptor [9], the % of inhibition came out at 45.3%. Moreover, the % of control in assay [10] turned out to be 37%; in [13] it was 30%; in assay [14], 37%; in assay [15] it was 40%. Besides, the IC50 in assay [11], in [12] and in assay [16] was over 25 µM each time.

The values are drawn from ChEMBL document CHEMBL5212743, “Selectivity Literature for EUbOPEN Chemogenomics Library wave 3” (2023).
